Data: ChEMBL document CHEMBL1275483, “Staphylococcus aureus cell wall stress stimulon gene-lacZ fusion strains: potential for use in screening for cell wall-active antimicrobials” (2008)
In brackets after ≈: the same amount, converted by molar mass. Activity calls are given as the source filed them. No cut-off for these calls is given here.

How the values were obtained:
[1] = tested on: Staphylococcus aureus; test: Induction of PvraSr::lacZ gene expression in Staphylococcus aureus SH1000 at 3 ug/ml after 2 hrs by beta-galactosidase reporter gene assay relative to untreated control; format: functional
[2] = tested on: Staphylococcus aureus; test: Induction of PlytR::lacZ gene expression in Staphylococcus aureus SH1000 at 3 ug/ml after 2 hrs by beta-galactosidase reporter gene assay relative to untreated control; format: functional
[3] = tested on: Staphylococcus aureus; test: Induction of PsgtB::lacZ gene expression in Staphylococcus aureus SH1000 at 3 ug/ml after 2 hrs by beta-galactosidase reporter gene assay relative to untreated control; format: functional
[4] = tested on: Staphylococcus aureus; test: Antimicrobial activity against beta-lactamase producing Staphylococcus aureus SH1000; format: functional
[5] = tested on: Staphylococcus aureus; test: Induction of PtcaA::lacZ gene expression in Staphylococcus aureus SH1000 at 3 ug/ml after 2 hrs by beta-galactosidase reporter gene assay relative to untreated control; format: functional
[6] = tested on: Staphylococcus aureus; test: Induction of Ppbp2::lacZ gene expression in Staphylococcus aureus SH1000 at 3 ug/ml after 2 hrs by beta-galactosidase reporter gene assay relative to untreated control; format: functional
[7] = tested on: Staphylococcus aureus; test: Induction of Ppbp2::lacZ gene expression in Staphylococcus aureus SH1000 at 2 ug/ml after 2 hrs by beta-galactosidase reporter gene assay relative to untreated control; format: functional
[8] = tested on: Staphylococcus aureus; test: Induction of PsgtB::lacZ gene expression in Staphylococcus aureus SH1000 at 2 ug/ml after 2 hrs by beta-galactosidase reporter gene assay relative to untreated control; format: functional
[9] = tested on: Staphylococcus aureus; test: Induction of PlytR::lacZ gene expression in Staphylococcus aureus SH1000 at 2 ug/ml after 2 hrs by beta-galactosidase reporter gene assay relative to untreated control; format: functional
[10] = tested on: Staphylococcus aureus; test: Induction of PtcaA::lacZ gene expression in Staphylococcus aureus SH1000 at 2 ug/ml after 2 hrs by beta-galactosidase reporter gene assay relative to untreated control; format: functional
[11] = tested on: Staphylococcus aureus; test: Induction of PvraSr::lacZ gene expression in Staphylococcus aureus SH1000 at 2 ug/ml after 2 hrs by beta-galactosidase reporter gene assay relative to untreated control; format: functional
[12] = tested on: Staphylococcus aureus; test: Induction of PsgtB::lacZ gene expression in Staphylococcus aureus SH1000 at 1 ug/ml after 2 hrs by beta-galactosidase reporter gene assay relative to untreated control; format: functional
[13] = tested on: Staphylococcus aureus; test: Induction of PlytR::lacZ gene expression in Staphylococcus aureus SH1000 at 1 ug/ml after 2 hrs by beta-galactosidase reporter gene assay relative to untreated control; format: functional
[14] = tested on: Staphylococcus aureus; test: Induction of PvraSr::lacZ gene expression in Staphylococcus aureus SH1000 at 1 ug/ml after 2 hrs by beta-galactosidase reporter gene assay relative to untreated control; format: functional
[15] = tested on: Staphylococcus aureus; test: Induction of PtcaA::lacZ gene expression in Staphylococcus aureus SH1000 at 1 ug/ml after 2 hrs by beta-galactosidase reporter gene assay relative to untreated control; format: functional
[16] = tested on: Staphylococcus aureus; test: Induction of Ppbp2::lacZ gene expression in Staphylococcus aureus SH1000 at 1 ug/ml after 2 hrs by beta-galactosidase reporter gene assay relative to untreated control; format: functional
[17] = tested on: Staphylococcus aureus; test: Induction of Ppbp2::lacZ gene expression in Staphylococcus aureus SH1000 at 8 ug/ml after 2 hrs by beta-galactosidase reporter gene assay relative to untreated control; format: functional, organism-based
[18] = tested on: Staphylococcus aureus; test: Induction of PsgtB::lacZ gene expression in Staphylococcus aureus SH1000 at 8 ug/ml after 2 hrs by beta-galactosidase reporter gene assay relative to untreated control; format: functional, organism-based
[19] = tested on: Staphylococcus aureus; test: Induction of Ppbp2::lacZ gene expression in Staphylococcus aureus SH1000 at 0.3 ug/ml after 0.5 hrs by beta-galactosidase reporter gene assay relative to untreated control; format: functional, organism-based
[20] = tested on: Staphylococcus aureus; test: Induction of PtcaA::lacZ gene expression in Staphylococcus aureus SH1000 at 8 ug/ml after 2 hrs by beta-galactosidase reporter gene assay relative to untreated control; format: functional, organism-based
[21] = tested on: Staphylococcus aureus; test: Induction of PlytR::lacZ gene expression in Staphylococcus aureus SH1000 at 8 ug/ml after 2 hrs by beta-galactosidase reporter gene assay relative to untreated control; format: functional, organism-based
[22] = tested on: Staphylococcus aureus; test: Induction of PvraSr::lacZ gene expression in Staphylococcus aureus SH1000 at 8 ug/ml after 2 hrs by beta-galactosidase reporter gene assay relative to untreated control; format: functional, organism-based

Structure (SMILES): CN[C@@H]1[C@H](O[C@H]2[C@H](O[C@H]3[C@H](O)[C@@H](O)[C@H](N=C(N)N)[C@@H](O)[C@@H]3N=C(N)N)O[C@@H](C)[C@]2(O)C=O)O[C@@H](CO)[C@H](O)[C@H]1O [STREPTOMYCIN]
- fold change (FC) [1]: 0.96
- fold change (FC) [2]: 0.7
- fold change (FC) [3]: 0.41
- MIC [4]: 1.5 µg/mL (≈ 2.58 µM)
- fold change (FC) [5]: 0.79
- fold change (FC) [6]: 0.3

Structure (SMILES): CN(C)[C@@H]1C(O)=C(C(N)=O)C(=O)[C@@]2(O)C(O)=C3C(=O)c4c(O)cccc4[C@@](C)(O)[C@H]3C[C@@H]12 [TETRACYCLINE]
- fold change (FC) [7]: 0.52
- fold change (FC) [8]: 0.4
- fold change (FC) [9]: 0.5
- MIC [4]: 0.5 µg/mL (≈ 1.13 µM)
- fold change (FC) [10]: 0.53
- fold change (FC) [11]: 0.52

Structure (SMILES): C=C(NC(=O)[C@@H](NC(=O)[C@H](Cc1cnc[nH]1)NC(=O)[C@@H](NC(=O)[C@H](CO)NC(=O)[C@@H]1CS[C@@H](C)[C@H]2NC(=O)C(=C)NC(=O)[C@H](NC(=O)[C@H](CCCCN)NC(=O)[C@H](CCSC)NC(=O)[C@H](CC(N)=O)NC(=O)[C@@H]3CS[C@@H](C)[C@@H](NC(=O)[C@H](CCCNN)NC(=O)[C@@H]4CS[C@@H](C)[C@@H](NC(=O)[C@@H]5CSC[C@@H](NC(=O)/C(=C\C)NC(=O)[C@@H](N)[C@@H](C)CC)C(=O)N[C@@H]([C@@H](C)CC)C(=O)NC(=C)C(=O)N[C@@H]([C@@H](C)CC)C(=O)N5)C(=O)N5CCC[C@H]5C(=O)NCC(=O)N4)C(=O)NCC(=O)N[C@@H](C)C(=O)N[C@@H]([C@@H](C)CC)C(=O)N[C@@H](CCSC)C(=O)NCC(=O)N3)[C@H](C)SC[C@H](NC2=O)C(=O)N[C@H](Cc2cnc[nH]2)C(=O)N1)[C@@H](C)CC)C(C)C)C(=O)N[C@@H](CCCCN)C(=O)O [NISIN]
- fold change (FC) [12]: 1.02
- fold change (FC) [13]: 1.21
- fold change (FC) [14]: 0.57
- fold change (FC) [15]: 0.97
- fold change (FC) [16]: 1.02

Structure (SMILES): COc1cc(Cc2cnc(N)nc2N)cc(OC)c1OC [TRIMETHOPRIM]
- fold change (FC) [12]: 1.19
- fold change (FC) [13]: 0.92
- fold change (FC) [14]: 0.9
- fold change (FC) [15]: 1.24
- fold change (FC) [16]: 0.88

Structure (SMILES): Cc1onc(-c2ccccc2)c1C(=O)N[C@@H]1C(=O)N2[C@@H]1SC(C)(C)[C@@H]2C(=O)O [OXACILLIN]
- Activity [17]: Active
- Activity [18]: Active
- Activity [19]: Active
- MIC [4]: 1 µg/mL (≈ 2.49 µM)
- Activity [20]: Active
- Activity [21]: Active
- Activity [22]: Active
